# Test results reported in patent US10307413B2, “Tetrahydro- and dihydro-isoquinoline PRMT5 inhibitors and uses thereof” (Epizyme, Inc., priority 2013, dated 2019).
# Read-outs that look alike come from different tables or passages of the source.
# Experiments:
# PRMT5/MEP50 = PRMT5/MEP50 (Homo sapiens (Human), UniProt O14744); experiment: PRMT5 Biochemical Assay (PRMT5/MEP50 enzyme assay on peptide substrate, 3H-SAM Flashplate)
# Text: S-adenosylmethionine (SAM), S-adenosylhomocysteine (SAH), bicine, KCl, Tween20, dimethylsulfoxide (DMSO), bovine skin gelatin (BSG), and Tris(2-carboxyethyl)phosphine hydrochloride solution (TCEP) were purchased from Sigma-Aldrich at the highest level of purity possible. ^3H-SAM was purchase from American Radiolabeled Chemicals with a specific activity of 80 Ci/mmol. 384-well streptavidin Flashplates were purchased from PerkinElmer.
# Peptide representative of human histone H4 residues 1-15 was synthesized with a C-terminal linker-affinity tag motif and a C-terminal amide cap by 21st Century Biochemicals.
# The amplified genes were sublconed into pENTR/D/TEV (Life Technologies) and subsequently transferred by Gateway™ attL×attR recombination to pDEST8 baculovirus expression vector (Life Technologies).
# Protein over-expression was accomplished by infecting exponentially growing Spodoptera frugiperda (SF9) cell culture at 1.2×10^6 cell/ml with a 5000 fold dilution of BIIC stock. Infections were carried out at 27° C. for 72 hours, harvested by centrifugation, and stored at −80° C. for purification.
# Flag-PRMT5/6His-MeP50 was eluted with 300 mM Imidazole in the same buffer.
# General Procedure for PRMT5/MEP50 Enzyme Assays on Peptide Substrates.
# The assays were all performed in a buffer consisting of 20 mM Bicine (pH=7.6), 1 mM TCEP, 0.005% BSG, and 0.002% Tween20, prepared on the day of use. […] DMSO (1 ul) was added to Columns 11, 12, 23, 24, rows A-H for the maximum signal control and 1 ul of SAH, a known product and inhibitor of PRMT5/MEP50, was added to columns 11, 12, 23, 24, rows I-P for the minimum signal control. A cocktail (40 ul) containing the PRMT5/MEP50 enzyme and the peptide was added by Multidrop Combi (Thermo-Fisher). The compounds were allowed to incubate with PRMT5/MEP50 for 30 min at 25 degrees Celsius, then a cocktail (10 ul) containing ^3H-SAM was added to initiate the reaction (final volume=51 ul). […] The assays were stopped by the addition of non-radioactive SAM (10 ul) to a final concentration of 600 uM, which dilutes the ^3H-SAM to a level where its incorporation into the peptide substrate is no longer detectable. 50 ul of the reaction in the 384-well polypropylene plate was then transferred to a 384-well Flashplate and the biotinylated peptides were allowed to bind to the streptavidin surface for at least 1 hour before being washed three times with 0.1% Tween20 in a Biotek ELx405 plate washer. The plates were then read in a PerkinElmer TopCount plate reader to measure the quantity of ^3H-labeled peptide bound to the Flashplate surface, measured as disintegrations per minute (dpm) or alternatively, referred to as counts per minute (cpm).
# [formula] [formula] Where dpm=disintegrations per minute, cmpd=signal in assay well, and min and max are the respective minimum and maximum signal controls.
# [formula] [formula] Where top and bottom are the normally allowed to float, but may be fixed at 100 or 0 respectively in a 3-parameter fit. The Hill Coefficient normally allowed to float but may also be fixed at 1 in a 3-parameter fit. Y is the % inhibition and X is the compound concentration.
# [1] = test system: symmetric di-methyl arginine in Z-138 cells; experiment: Z-138 Methylation Assay (In Cell Western for symmetric di-methyl arginine and DNA content); type: cell-based; settings: Homo sapiens, read-out: ICW EC50
# How it was run: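 In-cell western: symmetric di-methyl arginine signal ratioed to DRAQ5 DNA content after 96 h compound exposure of Z-138 cells seeded at 50,000 cells/mL.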
# Z-138 cell line = experiment: Z-138 Proliferation Assay (Cell Titer Glo, 5 days); type: cell-based; settings: Homo sapiens, 120 h, Z-138 cells, 5 days, read-out: Proliferation EC50
# How it was run: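 Viability via CellTiter-Glo luminescence (ATP) after 5-day incubation at 37 °C, 5% CO2. Compounds tested in triplicate, nine 3-fold steps, highest final concentration 20 μM in 0.2% DMSO; 50% inhibitory concentration by 4-parameter fit of normalized curves.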
# Chain of PRMT5/MEP50 (O14744 other isoform, or with tags, fused parts or gaps): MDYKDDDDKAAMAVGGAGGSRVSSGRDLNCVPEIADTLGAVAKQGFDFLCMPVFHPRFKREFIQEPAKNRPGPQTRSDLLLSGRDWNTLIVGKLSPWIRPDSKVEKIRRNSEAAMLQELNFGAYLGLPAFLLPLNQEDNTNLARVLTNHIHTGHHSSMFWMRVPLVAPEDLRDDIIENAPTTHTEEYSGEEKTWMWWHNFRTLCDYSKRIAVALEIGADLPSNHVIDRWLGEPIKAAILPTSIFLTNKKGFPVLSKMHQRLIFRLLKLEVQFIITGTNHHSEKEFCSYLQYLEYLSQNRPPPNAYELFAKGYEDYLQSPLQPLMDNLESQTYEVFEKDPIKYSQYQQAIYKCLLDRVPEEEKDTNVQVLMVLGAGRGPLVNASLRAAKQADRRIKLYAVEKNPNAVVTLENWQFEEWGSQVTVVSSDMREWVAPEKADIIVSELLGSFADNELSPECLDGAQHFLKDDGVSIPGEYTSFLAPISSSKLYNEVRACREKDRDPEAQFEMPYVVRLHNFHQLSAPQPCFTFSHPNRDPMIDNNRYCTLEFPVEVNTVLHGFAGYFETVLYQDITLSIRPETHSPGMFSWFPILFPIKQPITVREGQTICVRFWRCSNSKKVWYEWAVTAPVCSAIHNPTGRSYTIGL
# Chain of PRMT5/MEP50 (Q9BQA1 other isoform, or with tags, fused parts or gaps partner): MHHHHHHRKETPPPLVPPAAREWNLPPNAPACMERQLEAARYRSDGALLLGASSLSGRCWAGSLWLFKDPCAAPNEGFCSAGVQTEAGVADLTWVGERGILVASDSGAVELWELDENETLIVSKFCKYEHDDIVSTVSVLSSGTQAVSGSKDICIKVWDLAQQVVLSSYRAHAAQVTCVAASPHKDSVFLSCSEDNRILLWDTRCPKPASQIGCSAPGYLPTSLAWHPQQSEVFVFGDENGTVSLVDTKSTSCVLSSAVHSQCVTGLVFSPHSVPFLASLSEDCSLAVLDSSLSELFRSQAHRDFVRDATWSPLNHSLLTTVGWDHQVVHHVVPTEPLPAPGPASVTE
SMILES,IC50 (PRMT5/MEP50; PRMT5 biochemical assay),EC50 ([1]; In Cell Western methylation),IC50 (PRMT5/MEP50),EC50 [1],EC50 (Z-138 cell line; Cell Titer Glo),EC50 (Z-138 cell line)
"NS(=O)(=O)c1ccc(C(=O)NCC(O)CN2CCc3ccccc3C2)cc1 (stereo not drawn) [Compound 21, N-(3-(3,4-dihydroisoquinolin-2(1H)-yl)-2-hydroxypropyl)-4-sulfamoylbenzamide]",–,–,101 to 1000 nM,101 to 1000 nM,–,> 20000 nM
O=C(NC[C@H](O)CN1CCc2ccccc2C1)c1cnnc(NC2CCOC2)c1 (stereo partly drawn) [Compound 544],< 100 nM,< 100 nM,–,–,101 to 1000 nM,–
C[C@H](N1CC(Nc2cc(C(=O)NC[C@H](O)CN3CCc4ccccc4C3)ncn2)C1)C(F)(F)F [Compound 445],< 100 nM,< 100 nM,–,–,1000 to 10000 nM,–
CN(C)[C@H]1CC[C@@H](Nc2cc(C(=O)NC[C@H](O)CN3CCc4ccccc4C3)ncn2)CC1 [Compound 589],< 100 nM,101 to 1000 nM,–,–,1000 to 10000 nM,–
CN(C)c1nc(NC2CNC2)cc(C(=O)NC[C@H](O)CN2CCc3ccccc3C2)n1 [Compound 529],< 100 nM,101 to 1000 nM,–,–,101 to 1000 nM,–
CCCC(=O)N1CCC(Nc2cc(C(=O)NC[C@H](O)CN3CCc4ccccc4C3)ncn2)CC1 [Compound 407],< 100 nM,< 100 nM,–,–,< 100 nM,–
COCCN1CCN(c2nc(NC3COC3)cc(C(=O)NC[C@H](O)CN3CCc4ccccc4C3)n2)CC1 [Compound 496],< 100 nM,< 100 nM,–,–,< 100 nM,–
CC(NC(=O)c1cc(NC2CCN(C(=O)C3CC3)CC2)ncn1)C(O)CN1CCc2ccccc2C1 (stereo not drawn) [Compound 552],< 100 nM,< 100 nM,–,–,101 to 1000 nM,–
CCN1CCN(c2nc(NC3CNC3)cc(C(=O)NC[C@H](O)CN3CCc4ccccc4C3)n2)CC1 [Compound 466],< 100 nM,101 to 1000 nM,–,–,1000 to 10000 nM,–
CC(=O)N1CCC(Nc2cc(C(=O)NC[C@H](O)CN3CCc4ccccc4C3)nc(N3CCN(C)CC3)c2)CC1 [Compound 684],< 100 nM,< 100 nM,–,–,101 to 1000 nM,–
CC(=O)N(C)[C@H]1CC[C@@H](Nc2cc(C(=O)NC[C@H](O)CN3CCc4ccccc4C3)ncn2)CC1 [Compound 632],< 100 nM,< 100 nM,–,–,101 to 1000 nM,–
CC(=O)N1CC(Nc2cc(C(=O)NC[C@H](O)CN3CCc4c(C)cccc4C3)ncn2)C1 [Compound 676],< 100 nM,< 100 nM,–,–,1000 to 10000 nM,–
CC(C)N1CC(Nc2cc(C(=O)NC[C@H](O)CN3CCc4ccccc4C3)ncn2)C1 [Compound 423],< 100 nM,101 to 1000 nM,–,–,10000 to 50000 nM,–
CC(=O)N1CCC(Nc2cc(C(=O)NC[C@H](O)CN3CCc4ccccc4C3C)ncn2)CC1 (stereo partly drawn) [Compound 584],< 100 nM,< 100 nM,–,–,1000 to 10000 nM,–
O=C(NC[C@H](O)CN1CCc2ccccc2C1)c1cc(NC2COC2)nc(NC2COC2)n1 [Compound 547],< 100 nM,< 100 nM,–,–,< 100 nM,–
CC(C)CC(=O)N1CCC(Nc2cc(C(=O)NC[C@H](O)CN3CCc4ccccc4C3)ccn2)CC1 [Compound 471],< 100 nM,< 100 nM,–,–,< 100 nM,–
CC(NC(=O)c1cc(NC2CCN(C)CC2)ncn1)C(O)CN1CCc2ccccc2C1 (stereo not drawn) [Compound 535],101 to 1000 nM,101 to 1000 nM,–,–,> 5000 nM,–
CC(=O)N[C@H]1CC[C@H](Nc2cc(C(=O)NC[C@H](O)CN3CCc4ccccc4C3)ncn2)CC1 [Compound 594],< 100 nM,< 100 nM,–,–,101 to 1000 nM,–
CN(CCNCC(F)(F)F)c1cc(C(=O)NC[C@H](O)CN2CCc3ccccc3C2)ccn1 [Compound 359],–,–,< 100 nM,101 to 1000 nM,–,1000 to 10000 nM

# Further lines, with some results ahead:
IC50 (PRMT5/MEP50; PRMT5 biochemical assay),EC50 ([1]; In Cell Western methylation),IC50 (PRMT5/MEP50),EC50 [1],SMILES,EC50 (Z-138 cell line; Cell Titer Glo),EC50 (Z-138 cell line)
101 to 1000 nM,> 1000 nM,–,–,CC(NC(=O)c1cc(NC2CCNCC2)ncn1)C(O)CN1CCc2ccccc2C1 (stereo not drawn) [Compound 534],> 5000 nM,–
< 100 nM,< 100 nM,–,–,O=C(NC[C@H](O)CN1CCc2ccccc2C1)c1cc(NC2CCN(C(=O)C3CCC3)CC2)ccn1 [Compound 566],< 100 nM,–
< 100 nM,< 100 nM,–,–,CN(C)c1nc(NC2COC2)cc(C(=O)NC[C@H](O)CN2CCc3ccccc3C2)n1 [Compound 494],101 to 1000 nM,–
101 to 1000 nM,101 to 1000 nM,–,–,COC(CNC(=O)c1cc(NC2CN(C(C)=O)C2)ncn1)CN1CCc2ccccc2C1 (stereo not drawn) [Compound 690],> 5000 nM,–
–,–,< 100 nM,< 100 nM,Cc1cc(C(=O)NC[C@H](O)CN2CCc3ccccc3C2)cc(NC2CCC2)n1 [Compound 348],–,101 to 1000 nM
–,–,< 100 nM,< 100 nM,CN(C)CCOc1ccc2cc(C(=O)NC[C@H](O)CN3CCc4ccccc4C3)ccc2c1 [Compound 370],–,1000 to 10000 nM
< 100 nM,< 100 nM,–,–,CN(C)CCN(C)c1nc(NC2COC2)cc(C(=O)NC[C@H](O)CN2CCc3ccccc3C2)n1 [Compound 525],101 to 1000 nM,–
–,–,101 to 1000 nM,101 to 1000 nM,O=C(NC[C@H](O)CN1CCc2ccccc2C1)c1cncc(NC2CCN(CC(F)(F)F)C2)c1 (stereo partly drawn) [Compound 303],–,1000 to 10000 nM
–,–,< 100 nM,< 100 nM,O=C(NC[C@H](O)CN1CCc2ccccc2C1)c1cc(NC2CCC2)nc(N2CCNCC2)c1 [Compound 393],–,< 100 nM
< 100 nM,< 100 nM,–,–,CCCC(=O)N1CC(Nc2cc(C(=O)NC[C@H](O)CN3CCc4ccccc4C3)ncn2)C1 [Compound 415],< 100 nM,–
< 100 nM,101 to 1000 nM,–,–,CCc1nc(NC2CNC2)cc(C(=O)NC[C@H](O)CN2CCc3ccccc3C2)n1 [Compound 487],1000 to 10000 nM,–
101 to 1000 nM,> 1000 nM,–,–,O=C(NC[C@H](O)CN1CCc2ccccc2C1)C1=CC2=N[C@H](CO)CN2C=N1 [Compound 548],> 5000 nM,–
1000 to 10000 nM,> 1000 nM,–,–,COC(CNC(=O)c1cc(NC2CCNCC2)ncn1)CN1CCc2ccccc2C1 (stereo not drawn) [Compound 538],> 5000 nM,–
–,–,< 100 nM,> 1000 nM,O=C(NC[C@H](O)CN1CCc2ccccc2C1)c1ccnc(NC2COC2)c1 [Compound 378],–,> 20000 nM
1000 to 10000 nM,> 1000 nM,–,–,COC(CNC(=O)c1cc(NC2CCN(C)CC2)ncn1)CN1CCc2ccccc2C1 (stereo not drawn) [Compound 540],> 5000 nM,–
< 100 nM,101 to 1000 nM,–,–,O=C(NC[C@H](O)CN1CCc2ccccc2C1)c1cnnc(OC2CCNCC2)c1 [Compound 619],10000 to 50000 nM,–
< 100 nM,< 100 nM,–,–,CC(C)(C)c1nc(NC2CNC2)cc(C(=O)NC[C@H](O)CN2CCc3ccccc3C2)n1 [Compound 522],1000 to 10000 nM,–
< 100 nM,< 100 nM,–,–,CS(=O)(=O)N1CCN(c2nc(NC3COC3)cc(C(=O)NC[C@H](O)CN3CCc4ccccc4C3)n2)CC1 [Compound 499],101 to 1000 nM,–
–,–,< 100 nM,< 100 nM,CNCCCOc1ccc(C(=O)NC[C@H](O)CN2CCc3ccccc3C2)cc1 [Compound 392],–,1000 to 10000 nM
< 100 nM,< 100 nM,–,–,CCN(C)[C@H]1CC[C@H](Nc2cc(C(=O)NC[C@H](O)CN3CCc4ccccc4C3)ncn2)CC1 [Compound 662],101 to 1000 nM,–
< 100 nM,< 100 nM,–,–,CC(=O)N[C@H]1C[C@H](Nc2cc(C(=O)NC[C@H](O)CN3CCc4ccccc4C3)ncn2)C1 [Compound 440],101 to 1000 nM,–
